Here are results for 25 molecules from EP4741392A1, “1H-PYRAZOLO[4,3-C]PYRIDINE COMPOUND, AND COMPOSITION THEREOF AND USE THEREOF” (Shenzhen TargetRx Co., Ltd., priority 2023, dated 2025).

The structures appear in SMILES notation. Bounds are passed on as bounds.

One test concerns NIH/3T3 BTK WT cells. As to the kind of experiment: Phosphor-BTK(Y223) assay, adherent cells. It is filed as cell-based. To be noted: Mus musculus, NIH3T3, phosphorylated BTK Y223, NIH/3T3 BTK WT cells; read-out: NIH/3T3 BTK-WT pBTK. An outline of the steps:
(§1)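 NIH/3T3 cells expressing WT or C481S BTK were pretreated with compound for 0.5 h at 37 °C, then stimulated with 1 mM Na3VO4 (final) for 2 h. Lysates were assayed by HTRF for p-BTK Y223 using the 665/620 nm ratio. IC50 was obtained by nonlinear fit of % inhibition versus 0.5% DMSO control.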

For a further test, the system named is NIH/3T3 BTK C481S cells. As to the kind of experiment: Phosphor-BTK(Y223) assay, adherent cells. The note with it: Mus musculus, NIH3T3, phosphorylated BTK Y223, NIH/3T3 BTK C481S cells; read-out: NIH/3T3 BTK-C481S pBTK. Format: cell-based. An outline of the steps: as §1

For `COc1ccc(F)cc1C(=O)NCc1ccc(-c2nc(C(C)C(F)(F)F)cc3[nH]nc(N)c23)cc1` (centres unmarked) [Example 1, N-(4-(3-amino-6-(1,1,1-trifluoropropan-2-yl)-1H-pyrazolo[4,3-c]pyridin-4-yl)benzyl)-5-fluoro-2-methoxybenzamide], the IC50 in the test with NIH/3T3 BTK WT cells and in the test on NIH/3T3 BTK C481S cells was 10 to 50 nM in each case.
On to `COc1ccc(F)cc1C(=O)NCc1ccc(-c2nc(C(C)C(F)(F)F)c(-c3ccn(C)n3)c3[nH]nc(N)c23)cc1` (centres unmarked) [Example 6, N-(4-(3-amino-7-(1-methyl-1H-pyrazol-3-yl)-6-(1,1,1-trifluoropropan-2-yl)-1H-pyrazolo[4,3-c]pyridin-4-yl)benzyl)-5-fluoro-2-methoxybenzamide], for which the IC50 in the test with NIH/3T3 BTK WT cells was ≤ 5 nM; in the test on NIH/3T3 BTK C481S cells it was 5 to 10 nM.
In the same order, the values of `COc1ccc(F)cc1C(=O)NCc1ccc(-c2nc(C(C)C(F)(F)F)c(-c3ncccn3)c3[nH]nc(N)c23)cc1` (centres unmarked) [Example 7, N-(4-(3-amino-7-(pyrimidin-2-yl)-6-(1,1,1-trifluoropropan-2-yl)-1H-pyrazolo[4,3-c]pyridin-4-yl)benzyl)-5-fluoro-2-methoxybenzamide] are ≤ 5 nM and 5 to 10 nM.
In the same order, the values of `COc1ccc(F)cc1C(=O)NCc1ccc(-c2ncc(-c3cnn(C)c3)c3[nH]nc(N)c23)cc1` [Example 22, N-(4-(3-amino-7-(1-methyl-1H-pyrazol-4-yl)-1H-pyrazolo[4,3-c]pyridin-4-yl)benzyl)-5-fluoro-2-oxybenzamide] are > 50 nM and > 50 nM.
In the same order, the values of `COc1ccc(F)cc1C(=O)NCc1ccc(-c2ncc(-c3ccn(CC(=O)N(C)C)n3)c3[nH]nc(N)c23)cc1` [Example 25, N-(4-(3-amino-7-(1-(2-(dimethylamino)-2-oxoethyl)-1H-pyrazol-3-yl)-1H-pyrazolo[4,3-c]pyridin-4-yl)benzyl)-5-fluoro-2-methoxybenzamide] are 10 to 50 nM and 10 to 50 nM.
Turning to `CNC(=O)Cn1ccc(-c2cnc(-c3ccc(CNC(=O)c4cc(F)ccc4OC)cc3)c3c(N)n[nH]c23)n1` [Example 26, N-(4-(3-amino-7-(1-(2-(methylamino)-2-oxoethyl)-1H-pyrazol-3-yl)-1H-pyrazolo[4,3-c]pyridin-4-yl)benzyl)-5-fluoro-2-methoxybenzamide], the IC50 with NIH/3T3 BTK WT cells and in the test on NIH/3T3 BTK C481S cells was 10 to 50 nM throughout.
Turning to `COc1ccc(F)cc1C(=O)NCc1ccc(-c2ncc(-c3ccn(CC(F)(F)F)n3)c3[nH]nc(N)c23)cc1` [Example 28, N-(4-(3-amino-7-(1-(2,2,2-trifluoroethyl)-1H-pyrazol-3-yl)-1H-pyrazolo[4,3-c]pyridin-4-yl)benzyl)-5-fluoro-2-methoxybenzamide], the figures for the IC50 in the test on NIH/3T3 BTK WT cells and in the test on NIH/3T3 BTK C481S cells were ≤ 5 nM and 10 to 50 nM, respectively.
In the same order, the values of `COc1ccc(F)cc1C(=O)NCc1ccc(-c2ncc(-c3cn(C)cn3)c3[nH]nc(N)c23)cc1` [Example 30, N-(4-(3-amino-7-(1-methyl-1H-imidazol-4-yl)-1H-pyrazolo[4,3-c]pyridin-4-yl)benzyl)-5-fluoro-2-methoxybenzamide] are ≤ 5 nM and 5 to 10 nM.
Consider `COc1ccc(F)cc1C(=O)NCc1ccc(-c2ncc(-c3cc[nH]n3)c3[nH]nc(N)c23)cc1` [Example 31, N-(4-(3-amino-7-(1H-pyrazol-3-yl)-1H-pyrazolo[4,3-c]pyridin-4-yl)benzyl)-5-fluoro-2-methoxybenzamide], for which the IC50 was 5 to 10 nM in the test with NIH/3T3 BTK WT cells and 10 to 50 nM in the test on NIH/3T3 BTK C481S cells.
In the same order, the values of `COc1ccc(F)cc1C(=O)NCc1ccc(-c2ncc(-c3ncc(F)cn3)c3[nH]nc(N)c23)cc1` [Example 36, N-(4-(3-amino-7-(5-fluoropyrimidin-2-yl)-1H-pyrazolo[4,3-c]pyridin-4-yl)benzyl)-5-fluoro-2-methoxybenzamide] are 5 to 10 nM and 5 to 10 nM.
The matching figures for `COc1ccc(F)cc1C(=O)NCc1ccc(-c2ncc(-c3ccc(Cl)cn3)c3[nH]nc(N)c23)cc1` [Example 38, N-(4-(3-amino-7-(5-chloropyridin-2-yl)-1H-pyrazolo[4,3-c]pyridin-4-yl)benzyl)-5-fluoro-2-methoxybenzamide]: ≤ 5 nM and ≤ 5 nM.
In the same order, the values of `COc1ccc(F)cc1C(=O)NCc1ccc(-c2ncc(-c3ncc(C)cn3)c3[nH]nc(N)c23)cc1` [Example 39, N-(4-(3-amino-7-(5-methylpyrimidin-2-yl)-1H-pyrazolo[4,3-c]pyridin-4-yl)benzyl)-5-fluoro-2-methoxybenzamide] are ≤ 5 nM and ≤ 5 nM.
Consider `COc1ccc(F)cc1C(=O)NCc1ccc(-c2ncc(-c3ccc(OC(F)(F)F)cn3)c3[nH]nc(N)c23)cc1` [Example 41, N-(4-(3-amino-7-(5-(trifluoromethoxy)pyridin-2-yl)-1H-pyrazolo[4,3-c]pyridin-4-yl)benzyl)-5-fluoro-2-methoxybenzamide], for which the IC50 in the test with NIH/3T3 BTK WT cells was ≤ 5 nM; with NIH/3T3 BTK C481S cells, 5 to 10 nM.
In the same order, the values of `COc1ccc(F)cc1C(=O)NCc1ccc(-c2ncc(-c3ncc(C(F)(F)F)cn3)c3[nH]nc(N)c23)cc1` [Example 42, N-(4-(3-amino-7-(5-(trifluoromethyl)pyrimidin-2-yl)-1H-pyrazolo[4,3-c]pyridin-4-yl)benzyl)-5-fluoro-2-methoxybenzamide] are ≤ 5 nM and 10 to 50 nM.
As for `CCOC(=O)c1cnc2cc(-c3cnc(-c4ccc(CNC(=O)c5cc(F)ccc5OC)cc4)c4c(N)n[nH]c34)nn2c1` [Example 45, ethyl 2-(3-amino-4-(4-((5-fluoro-2-methoxybenzoylamino)methyl)phenyl)-1H-pyrazolo[4,3-c]pyridin-7-yl)pyrazolo[1,5-a]pyrimidine-6-carboxylate], the IC50 in the test on NIH/3T3 BTK WT cells and with NIH/3T3 BTK C481S cells was 10 to 50 nM in each case.
As to `COc1ccc(F)cc1C(=O)NCc1ccc(-c2ncc(-c3ccc4cn[nH]c4n3)c3[nH]nc(N)c23)cc1` [Example 47, N-(4-(3-amino-7-(1H-pyrazolo[3,4-b]pyridin-6-yl)-1H-pyrazolo[4,3-c]pyridin-4-yl)benzyl)-5-fluoro-2-methoxybenzamide], the IC50 is 5 to 10 nM in the test on NIH/3T3 BTK WT cells and 10 to 50 nM with NIH/3T3 BTK C481S cells.
The matching figures for `COc1ccc(F)cc1C(=O)NCc1ccc(-c2ncc(-c3ccc(C(F)F)cn3)c3[nH]nc(N)c23)cc1` [Example 48, N-(4-(3-amino-7-(5-(difluoromethyl)pyridin-2-yl)-1H-pyrazolo[4,3-c]pyridin-4-yl)benzyl)-5-fluoro-2-methoxybenzamide]: ≤ 5 nM and ≤ 5 nM.
The matching figures for `COc1ccc(F)cc1C(=O)NCc1ccc(-c2ncc(-c3cn4ccnc4cn3)c3[nH]nc(N)c23)cc1` [Example 50, N-(4-(3-amino-7-(imidazo[1,2-a]pyrazin-6-yl)-1H-pyrazolo[4,3-c]pyridin-4-yl)benzyl)-5-fluoro-2-methoxybenzamide]: ≤ 5 nM and 5 to 10 nM.
The matching figures for `COc1ccc(F)cc1C(=O)NCc1ccc(-c2ncc(-c3ccc4nccn4n3)c3[nH]nc(N)c23)cc1` [Example 51, N-(4-(3-amino-7-(imidazo[1,2-b]pyridazin-6-yl)-1H-pyrazolo[4,3-c]pyridin-4-yl)benzyl)-5-fluoro-2-methoxybenzamide]: ≤ 5 nM and 5 to 10 nM.
In the case of `COc1ccc(F)cc1C(=O)NCc1ccc(-c2ncc(-c3ccc(C(=O)N4C[C@@H](C)O[C@H](C)C4)cn3)c3[nH]nc(N)c23)cc1` [Example 54, N-(4-(3-amino-7-(5-((2R,6R)-2,6-dimethylmoroholine-4-carbonyl)pyridin-2-yl)-1H-pyrazolo[4,3-c]pyridin-4-yl)benzyl)-5-fluoro-2-methoxybenzamide], the IC50 in the test on NIH/3T3 BTK WT cells and in the test on NIH/3T3 BTK C481S cells was ≤ 5 nM throughout.
Consider `COc1ccc(F)cc1C(=O)NCc1ccc(-c2ncc(-c3ccc(P(C)(C)=O)cn3)c3[nH]nc(N)c23)cc1` [Example 56, N-(4-(3-amino-7-(5-(dimethylphosphoryl)pyridin-2-yl)-1H-pyrazolo[4,3-c]pyridin-4-yl)benzyl)-5-fluoro-2-methoxybenzamide], for which the IC50 in the test with NIH/3T3 BTK WT cells and with NIH/3T3 BTK C481S cells was > 50 nM each time.
For `COc1ccc(F)cc1C(=O)NCc1ccc(-c2ncc(-c3nc4cnccn4n3)c3[nH]nc(N)c23)cc1` [Example 57, N-(4-(7-([1,2,4]triazolo[1,5-a]pyrazin-2-yl)-3-amino-1H-pyrazolo[4,3-c]pyridin-4-yl)benzyl)-5-fluoro-2-methoxybenzamide], the IC50 is ≤ 5 nM in the test on NIH/3T3 BTK WT cells and 5 to 10 nM in the test with NIH/3T3 BTK C481S cells.
The matching figures for `COc1ccc(F)cc1C(=O)NCc1ccc(-c2ncc(-c3nc4ccccn4n3)c3[nH]nc(N)c23)cc1` [Example 58, N-(4-(7-([1,2,4]triazolo[1,5-a]pyridin-2-yl)-3-amino-1H-pyrazolo[4,3-c]pyridin-4-yl)benzyl)-5-fluoro-2-methoxybenzamide]: ≤ 5 nM and ≤ 5 nM.
In the same order, the values of `COc1ccc(F)cc1C(=O)NCc1ccc(-c2ncc(-c3cnn4cccnc34)c3[nH]nc(N)c23)cc1` [Example 70, N-(4-(3-amino-7-(pyrazolo[1,5-a]pyrimidin-3-yl)-1H-pyrazolo[4,3-c]pyridin-4-yl)benzyl)-5-fluoro-2-methoxybenzamide] are ≤ 5 nM and ≤ 5 nM.
Regarding `COc1ccc(F)cc1C(=O)NCc1ccc(-c2ncc(-c3ccc(N4CCN(C)CC4)cn3)c3[nH]nc(N)c23)cc1` [Example 73, N-(4-(3-amino-7-(5-(4-methylpiperazin-1-yl)pyridin-2-yl)-1H-pyrazolo[4,3-c]pyridin-4-yl)benzyl)-5-fluoro-2-methoxybenzamide], the IC50 in the test on NIH/3T3 BTK WT cells and in the test on NIH/3T3 BTK C481S cells was ≤ 5 nM throughout.
